The values that follow come from US4006144A, “10,11-Dihydro-dibenzo(b,f)thiepin derivatives” (Hoffmann-La Roche Inc., priority 1972, dated 1977).

Structures can show the parent of a compound that is named as a salt. Where two headings read alike, the source gives them in different places.

Assay type in all cases: in vivo
The test system of series [1] is rats. The series is described as follows: Pole climbing test. The settings on record: for Quotient ED10 (Blocking of the unconditioned reaction)/ED50 (Blocking of the conditioned reaction): higher = greater selectivity of neuroleptic action. As for the experimental part: This test gives information about behaviour reactions of rats. Rats are trained to avoid, by climbing up a vertical pole in the test chamber, an electrical impulse (unconditioned impulse) released via the wire-latticed floor some seconds after an acoustic signal (conditioned impulse).
The blocking of the conditioned reaction is determined by the parameter ED50 (mg/kg p.o.); the blocking of the unconditioned reaction is determined by the parameter ED10 (mg/kg p.o.).
The parameter ED50 (blocking of the conditioned reaction) gives a measure of the neuroleptic activity strength of the test substance. The quotient ED10 (blocking of the unconditioned reaction)/ED50 (blocking of the conditioned reaction) gives a measure of the quality of action of the test substance, in that with increasing quotient a greater selectivity of the neuroleptic action (slighter neurotoxic side-effects) is present.

A further series concerns homovanillic acid (HVA). The series is described as follows: Determination of homovanillic acid (turnover of dopamine in the basal ganglia). The settings on record: rats; for Increase of HVA: 2 hours, untreated rats fixed at 100%. As for the experimental part:
Rats are injected with the derivative to be tested 2 hours before they are killed.
Homovanillic acid is extracted from the supernatant of the brain homogenate into butyl acetate and later into an aqueous solution and oxidised with potassium ferricyanide to a fluorescent dimer. From the increased concentration of homovanillic acid (HVA) it can be concluded that the derivative under investigation acts like chlorpromazine, i.e. it increases the turnover of dopamine in the basal ganglia. The homovanillic acid titre in untreated rats is arbitrarily fixed at 100%.

In the next series the test system is mice. Kind of series: Rotating rod test. The settings on record: for ED50: Mus musculus, po, read-out: ED50 (dose which reduces the holding time to 50%). As for the experimental part: In the rotating rod test, the ability of mice to achieve a coordinated, motoric performance is tested. After the peroral administration of the test substance, mice are placed on a horizontal, slowly rotating rod and the time until the mice fall off the rod is measured.

The nature of series [2]: Cataleptic action in rats (homolateral extremities crossed position). The settings on record: rat, in vivo, ip. As for the experimental part:
(§1) The following products were investigated:
(§2) The amimals are considered to be cataleptic when the homolateral extremities remain for at least 10 seconds in the crossed position. The number of cataleptic animals is noted every 30 minutes for 6 hours.

Series [3] relates to rats. Described as above. The settings on record: rats, intraperitoneal. The protocol: as §1, §2

For the molecule `CN(C)CCCN1c2ccccc2Sc2ccc(Cl)cc21` [Chlorpromazine, reference compound], the “Quotient ED10 (Blocking of the unconditioned reaction)/ED50 (Blocking of the conditioned reaction)” value in the series with rats [1] (p.o.) was 3.5. In addition, the “Increase of HVA” value in the series with homovanillic acid (HVA) (20 mg/kg p.o.) amounted to 321%. The ED50 with mice was 5 mg/kg.

For `O=C1OCCN1CCN1CCN(C2Cc3cc(Cl)ccc3Sc3ccccc32)CC1` (stereo not shown) [Product A, 3-[2-[4-(2-chloro-10,11-dihydro-dibenzo[b,f]thiepin-10-yl)-1-piperazinyl]-ethyl]-2-oxozolidinone maleate], in the series on rats [1] (Rattus norvegicus, po, read-out: ED50 (Blocking of the conditioned reaction)), the ED50 turned out to be 10 mg/kg. Besides, in the series on rats [1] (p.o.), the “neuroleptic action and quality (selectivity) compared with chlorpromazine (in words)” value is “strong neuroleptic action but also a quality (selectivity) of the neuroleptic action, both of which somewhat exceed that of chlorpromazine”; the “Quotient ED10 (Blocking of the unconditioned reaction)/ED50 (Blocking of the conditioned reaction)” value came to 4.2. The molecule further came in with a TD50 at 6 h in series [2] greater than 100 mg/kg. Further, in the series with rats [3], the “cataleptic action in comparison to chlorpromazine (in words)” value was “no cataleptic action or only a slight cataleptic action”. Besides, the “Increase of HVA” value with homovanillic acid (HVA) (50 mg/kg p.o.) was determined as 340%. Moreover, the “activity in HVA test compared with chlorpromazine (in words)” value in the series with homovanillic acid (HVA) was “almost equalizes that of chloropromazine”. In addition, in the series on mice (mice, peroral), the ED50 was 7.9 mg/kg and the “action in rotating rod test (in words)” value is “strong action”.

As to `Cc1ccc2c(c1)CC(N1CCN(CCN3CCOC3=O)CC1)c1ccccc1S2.O=C(O)/C=C\C(=O)O` (stereo not shown) [Product B, 3-[2-[4-(10,11-dihydro-2-methyl-dibenzo[b,f]thiepin-10-yl)-1-piperazinyl]-ethyl]-2-oxazolidinone maleate], the TD50 at 6 h in series [2] (rats, intraperitoneal, noted every 30 minutes for 6 hours, read-out: ED50 (dose at which 50% of the animals show catalepsy)) worked out at 70 mg/kg. Moreover, the “cataleptic action in comparison to chlorpromazine (in words)” value with rats [3] is “no cataleptic action or only a slight cataleptic action”. Also, the “Increase of HVA” value with homovanillic acid (HVA) (50 mg/kg p.o.) is listed as 255%. Moreover, the “activity in HVA test compared with chlorpromazine (in words)” value in the series on homovanillic acid (HVA) is recorded as “almost equalizes that of chloropromazine”.
